Laboratory results: patent US20200230207A1, “TREATMENT OF BONE GROWTH DISORDERS” (FONDAZIONE TELETHON, priority 2015, published 2020)

Key:
GusbKO RCS cells = assay: UVRAG phosphorylation and AV-Lys fusion in GusbKO RCS chondrocytes; assay type: cell-based, rat; settings: 1 μM, 6h
Experimental: FIG. 32: mTORC1 inhibits AV-Lys fusion in MPS via UVRAG. A, immunoprecipitation assay testing the increase of UVRAG phosphorylation in RCS GusbKO relative to RCS WT cells. The increase is blunted in the presence of Torin-1 (1 μM; 6h). B, immunoprecipitation assay testing physical interactions between endogenous UVRAG, Rubicon and Beclin-1 in RCS WT and GusbKO RCS chondrocytes after 6h amino acid treatment. Cell lysates were immunoprecipitated with an UVRAG-specific antibody followed by probing with antibodies specific for P-UVRAG (S498), UVRAG, Rubicon or Beclin-1. C, myc-UVRAG was transiently expressed in Gusb^−/− primary chondrocytes. Myc expression, LC3 and P62 were monitored by fluorescence microscope two days post-transfection and after 24h amino acid treatment. Scale bar, 10 μm. Quantitative analysis of P62 and LC3 puncta. Mean value is shown as a horizontal bar. (Student's t-test, *** p<0.0005, n≥20). […] Blot is representative of 3 independent experiments. E, quantification of protein amount normalized to β-actin and relative to RCS WT (ANOVA, P62 P<0.0001, Tukey's post-hoc test, ***p<0.0005, **p<0.005, *p<0.05). […] Scale bar, 10 μm. Quantification of Lamp-1-LC3 co-localization is shown as mean (±s.e.m.) of Mander's Coefficients resulting from three independent experiments (Student's t-test, *p<0.05).

[1] = test system: MPS VII primary chondrocytes; assay: mTORC1 signaling and autophagy flux in MPS VII primary chondrocytes treated with Torin1; assay type: cell-based, mouse; settings: 1 μM, 24 hours
Experimental: FIG. 28: Pharmacological inhibition of mTORC1 restores autophagy flux in MPS VII chondrocytes. α-b, biochemical analysis in primary chondrocytes treated with Torin1 (1 μM) for 24 hours (a) and quantification (b). Data shown in (b) are mean+SE of 3 independent experiments.
Primary chondrocytes were isolated from the rib cage of P5 mice (wild-type and MPS VII) and were plated at the density of 10^5 cells/cm^2. After 3 days in culture cells were splitted in 12 wells chamber, synchronized with AA, treated with Torin1 (1 μM) for 24 hours and harvested for biochemical analysis.

[2] = test system: kidney transplanted children; settings: small series of kidney transplanted children; cited from earlier work
young rats = settings: cited from earlier work

Structure (SMILES) | UVRAG serine 497 (S497) phosphorylation (GusbKO RCS cells) | LC3 II and p62 levels [1] | autophagy defects [1] | phosphorylation of mTORC1 substrates [1] | growth rate compared with control group not treated [2] | longitudinal growth (young rats; rats) | angiogenesis, proliferation and hypertrophy of growth cartilage chondrocytes (young rats; young rats)
CCC(=O)N1CCN(c2ccc(-n3c(=O)ccc4cnc5ccc(-c6cnc7ccccc7c6)cc5c43)cc2C(F)(F)F)CC1 [Torin1] | blunted | normalization | rescues | completely suppresses |  |  | 
CO[C@H]1C[C@@H]2CC[C@@H](C)[C@@](O)(O2)C(=O)C(=O)N2CCCC[C@H]2C(=O)O[C@H]([C@H](C)C[C@@H]2CC[C@@H](O)[C@H](OC)C2)CC(=O)[C@H](C)/C=C(\C)[C@@H](O)[C@@H](OC)C(=O)[C@H](C)C[C@H](C)/C=C/C=C/C=C/1C [rapamycin] |  |  |  |  | lower growth rate | impairs longitudinal growth | disrupts angiogenesis and decreases proliferation and hypertrophy of growth cartilage chondrocytes
